Experimental data: ChEMBL document CHEMBL1123274, “Azasteroids: structure-activity relationships for inhibition of 5 alpha-reductase and of androgen receptor binding” (J Med Chem, 1986)

Key:
Androgen receptor = target: T1, Androgen receptor (Rattus norvegicus, UniProt P15207); experiment: In vitro antagonist activity against rat prostatic androgen receptor (AR)
T1 sequence (P15207 whole entry): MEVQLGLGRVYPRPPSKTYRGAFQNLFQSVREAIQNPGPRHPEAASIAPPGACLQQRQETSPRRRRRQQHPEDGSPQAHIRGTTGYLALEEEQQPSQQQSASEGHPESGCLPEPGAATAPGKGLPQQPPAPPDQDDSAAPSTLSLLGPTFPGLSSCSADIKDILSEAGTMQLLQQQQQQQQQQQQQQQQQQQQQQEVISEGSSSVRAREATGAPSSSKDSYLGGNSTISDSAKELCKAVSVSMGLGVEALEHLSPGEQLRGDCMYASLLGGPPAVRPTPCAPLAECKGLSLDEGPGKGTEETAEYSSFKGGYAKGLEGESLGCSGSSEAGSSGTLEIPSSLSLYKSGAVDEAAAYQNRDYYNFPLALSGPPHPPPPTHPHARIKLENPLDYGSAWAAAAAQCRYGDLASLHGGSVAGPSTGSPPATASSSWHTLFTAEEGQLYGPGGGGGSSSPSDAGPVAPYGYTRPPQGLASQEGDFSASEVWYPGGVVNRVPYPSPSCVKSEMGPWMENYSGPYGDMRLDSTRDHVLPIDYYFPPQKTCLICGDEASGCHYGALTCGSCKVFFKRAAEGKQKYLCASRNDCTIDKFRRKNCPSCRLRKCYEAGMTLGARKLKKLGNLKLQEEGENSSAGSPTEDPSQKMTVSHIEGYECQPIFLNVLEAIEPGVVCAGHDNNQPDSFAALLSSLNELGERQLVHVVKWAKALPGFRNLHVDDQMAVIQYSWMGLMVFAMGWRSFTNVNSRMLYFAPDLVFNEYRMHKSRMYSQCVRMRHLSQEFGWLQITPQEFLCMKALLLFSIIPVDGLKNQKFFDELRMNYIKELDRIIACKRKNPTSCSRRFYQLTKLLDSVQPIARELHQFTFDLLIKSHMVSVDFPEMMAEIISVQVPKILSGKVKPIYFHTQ

[1] = target: T2, Steroid 5-alpha-reductase (Rattus norvegicus, UniProt P24008+P31214); experiment: Inhibition of Steroid 5-alpha-reductase from rat prostate; format: tissue-based, Prostate gland
T2 sequence (P24008 whole entry): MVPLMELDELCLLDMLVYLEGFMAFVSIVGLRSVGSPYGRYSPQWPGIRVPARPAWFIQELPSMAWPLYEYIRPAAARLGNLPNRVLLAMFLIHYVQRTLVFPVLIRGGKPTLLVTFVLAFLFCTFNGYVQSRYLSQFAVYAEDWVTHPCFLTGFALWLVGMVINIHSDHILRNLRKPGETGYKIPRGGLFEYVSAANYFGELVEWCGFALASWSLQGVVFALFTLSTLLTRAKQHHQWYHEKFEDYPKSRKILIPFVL
T2 sequence (P31214 whole entry): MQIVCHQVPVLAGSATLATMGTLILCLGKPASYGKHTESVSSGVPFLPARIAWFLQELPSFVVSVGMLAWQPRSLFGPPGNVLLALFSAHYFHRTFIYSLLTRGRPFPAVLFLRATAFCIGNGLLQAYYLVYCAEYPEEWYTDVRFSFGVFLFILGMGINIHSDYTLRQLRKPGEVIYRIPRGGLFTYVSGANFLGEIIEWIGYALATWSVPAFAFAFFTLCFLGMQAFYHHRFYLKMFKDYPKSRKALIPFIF

[2] = target: T2, Steroid 5-alpha-reductase; experiment: In vitro inhibitory activity against rat prostatic steroid 5-alpha-reductase; format: protein assay

| SMILES | IC50 (Androgen receptor) | IC50 [1] | IC50 [2] |
| --- | --- | --- | --- |
| CC(O)[C@H]1CC[C@H]2[C@@H]3CCC4N(C)C(=O)CC[C@]4(C)[C@H]3CC[C@]12C (some centres not stated) | 74 nM | 1.9e-08 M | – |
| CC(CCC(=O)[O-])[C@H]1CC[C@H]2[C@@H]3CCC4N(C)C(=O)CC[C@]4(C)[C@H]3CC[C@]12C.[Na+] (some centres not stated) | 21000 nM | – | 3.6 nM |
| CCN(CC)C(=O)[C@H]1CC[C@H]2[C@@H]3CC[C@H]4N(C)C(=O)[C@@H](C)C[C@]4(C)[C@H]3CC[C@]12C | 6100 nM | – | 20 nM |
| CN1C(=O)CC[C@@]2(C)C1CC[C@H]1[C@@H]3CC[C@H](O)[C@@]3(C)CC[C@@H]12 (some centres not stated) | 19 nM | 1.5e-07 M | – |
| CC(=O)[C@H]1CC[C@H]2[C@@H]3CCC4NC(=O)CC[C@]4(C)[C@H]3CC[C@]12C (some centres not stated) | 68000 nM | 5e-08 M | – |
| CCN(CC)C(=O)[C@H]1CC[C@H]2[C@@H]3CC[C@H]4N(C)C(=O)C[C@H](C#N)[C@]4(C)[C@H]3CC[C@]12C | > 10000 nM | – | > 1000 nM |
| CC(=O)[C@H]1[C@H](C)C[C@H]2[C@@H]3CCC4N(C)C(=O)CC[C@]4(C)[C@H]3CC[C@@]21C (some centres not stated) | 290 nM | – | 3.4 nM |
| CCCCCCCCCCCCCCCCCCNC(=O)[C@H]1CC[C@H]2[C@@H]3CCC4N(C)C(=O)CC[C@]4(C)[C@H]3CC[C@]12C (some centres not stated) | 17000 nM | – | 20 nM |
| CCN(CC)C(=O)[C@H]1CC[C@H]2[C@@H]3CC[C@H]4N(NC=O)C(=O)CC[C@]4(C)[C@H]3CC[C@]12C | > 10000 nM | – | 400 nM |
| C[C@]12CCC(=O)C=C1CC[C@@H]1[C@@H]2CC[C@@]2(C)[C@H]1CC[C@@]21CCCO1 | 89 nM | 1.1e-06 M | – |
| CC(O)[C@H]1[C@H](C)C[C@H]2[C@@H]3CCC4N(C)C(=O)CC[C@]4(C)[C@H]3CC[C@@]21C (some centres not stated) | 170 nM | – | 2.8 nM |
| CN1C(=O)CC[C@@]2(C)C1CC[C@@H]1[C@@H]2CC[C@@]2(C)[C@H]1CC[C@@]21CCC(=O)O1 (some centres not stated) | 89 nM | – | 40 nM |
| C[C@]12CC[C@H]3[C@@H](CCC4=CC(=O)CC[C@@H]43)[C@@H]1CC[C@@]21CCCO1 | 30 nM | 1.5e-06 M | – |
| C=C1C[C@@H]2[C@H](CC[C@@]3(C)[C@H]2CC[C@]3(OC(C)=O)C(C)=O)[C@@]2(C)CCC(=O)C=C12 | – | 1.6e-07 M | – |
| CC(O)[C@H]1CC[C@H]2[C@@H]3CCC4NC(=O)CC[C@]4(C)[C@H]3CC[C@]12C (some centres not stated) | 9300 nM | 4.5e-08 M | – |
| CCN(CC)C(=O)[C@H]1CC[C@H]2[C@@H]3CCC4=CC(=O)CC[C@]4(C)[C@H]3CC[C@]12C | 340 nM | 7.6e-07 M | – |
| CC(=O)[C@H]1CC[C@H]2[C@@H]3CCC4N(C)C(=O)CC[C@]4(C)[C@H]3CC[C@]12C (some centres not stated) | 210 nM | 2.3e-08 M | – |
| C[C@H]1CC2N(C)C(=O)CC[C@]2(C)[C@H]2CC[C@@]3(C)[C@@H](CC[C@@]34CCCO4)[C@H]12 (some centres not stated) | 500 nM | – | 4.6 nM |
| CN1C(=O)C=C[C@@]2(C)C1CC[C@H]1[C@@H]3CC[C@H](C(=O)NC(C)(C)C)[C@@]3(C)CC[C@@H]12 (some centres not stated) | 150 nM | – | 13 nM |
| CC(C)(C)NC(=O)[C@H]1CC[C@H]2[C@@H]3CCC4NC(=O)CC[C@]4(C)[C@H]3CC[C@]12C (some centres not stated) | > 100000 nM | – | 6.3 nM |
| CCN(CC)C(=O)[C@H]1CC[C@H]2[C@@H]3CC[C@@H]4NC(=O)CC[C@]4(C)[C@H]3CC[C@]12C (stereo in doubt; 79) | > 10000 nM | – | > 1000 nM |
| C[C@]12CCC(=O)C[C@@H]1CC[C@@H]1[C@@H]2CC[C@]2(C)[C@@H](O)CC[C@@H]12 [STANOLONE] | – | >> 1e-6 M | – |
